Source: patent publication US7163672B2, “Pharmaceutical aerosol formulation” (AstraZeneca AB, priority 2000, dated 2007)

Test: Surface energy by inverse gas chromatography (IGC)
Format: physicochemical
Conditions: 35° C., powder
Method: Surface energy of the drug and the drug surfactant particles was measured by inverse gas chromatography. A silanised U-shaped column (3 mm internal diameter, 30 cm length) was packed with approximately 400 mg of the test powder and dried under nitrogen for 24 hours at 50° C. The powder bed was then allowed to settle for 24 hours at 35° C. (temperature used during the experiments) under nitrogen. The test probes used were: hexane, heptane, octane, chloroform, CCl4, benzene, acetone, tetrahydrofuran, ethyl acetate and diethyl ether. One ml of air containing a minute concentration of each gaseous probe was injected into the column and the retention time measured.

γs^D (n = 3) [mJ/m²]	Compound
52.3	CCC(=O)OCC(=O)[C@@]1(OC(=O)CC)[C@@H](C)C[C@H]2[C@@H]3CCC4=CC(=O)C=C[C@]4(C)[C@@]3(Cl)[C@@H](O)C[C@@]21C [BDP, Beclomethasone dipropionate]
43.3	Salbutamol sulphate
